Data reported in patent publication US9273003B2, “Methods of treating lymphoma and rheumatoid arthritis with cyclopentyl (2S)-cyclohexyl[({6-[3-(hydroxyamino)-3-oxopropyl]pyridin-3-yl}methyl)amino]acetate” (GlaxoSmithKline Intellectual Property Development Limited, priority 2006, dated 2016).

Experiments:
HUT78 cells = assay: HUT cell inhibition assay (WST-1 cell viability); format: cell-based; conditions: Homo sapiens; HUT78 cells; IC50 allocated to ranges; read-out: HUT activity
Outline: (§1)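 Log-phase cells seeded at 1000-2000/well, grown 24 h, then exposed to compound for 72-96 h before WST-1 viability readout. Eight concentrations (top 10 μM final, 3-fold steps), 6 replicates; % inhibition versus DMSO, IC50 by sigmoidal variable-slope fit.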

HeLa cells = assay: HeLa cell inhibition assay (sulphorhodamine B cell viability); format: cell-based; conditions: Homo sapiens, IC50 allocated to ranges
Protocol: HeLa cells growing in log phase were harvested and seeded at 1000 cells/well (200 μl final volume) into 96-well tissue culture plates. Following 24 h of cell growth cells were treated with compounds (final concentration of 20 μM). Plates were then re-incubated for a further 72 h before a sulphorhodamine B (SRB) cell viability assay was conducted according to the methodology described by Skehan et al, J. Natl. Canc. Inst., 1990, 82, 1107-1112.
Data were expressed as a percentage inhibition of the control, measured in the absence of inhibitor, as follows:— % inhibition=100−[(S^i/S^o)×100] where S^i is the signal in the presence of inhibitor and S^o is the signal in the presence of DMSO.
IC50 values were determined by non-linear regression analysis, after fitting the results of eight data points to the equation for sigmoidal dose response with variable slope (% activity against log concentration of Compound), using Graphpad Prism software.

[1] = biological target: histone deacetylase activity (HeLa nuclear extract); assay: HDAC fluorescent activity assay (Fluor de Lys, Biomol); format: biochemical; conditions: IC50 allocated to ranges, read-out: HDAC activity
Outline: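 HeLa nuclear extract as HDAC source incubated with acetyl-lysine Fluor de Lys substrate ± inhibitor; developer then releases fluorophore from deacetylated substrate. Activity as % of vehicle control after no-enzyme background subtraction; IC50 from eight-point variable-slope sigmoidal fit.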

U937 cells = assay: U937 cell inhibition assay (WST-1 cell viability); format: cell-based; conditions: Homo sapiens, U-937; U937 cells; IC50 allocated to ranges; read-out: U937 activity
Outline: as §1

| SMILES | IC50 (HUT78 cells) | IC50 (HeLa cells) | IC50 [1] | IC50 (U937 cells) |
| --- | --- | --- | --- | --- |
| CC(C)(C)OC[C@H](NCc1ccc(/C=C/C(=O)NO)cc1)C(=O)OC1CCCC1 [Example 16, Cyclopentyl O-tert-butyl-N-{4-[(1E)-3-(hydroxyamino)-3-oxoprop-1-en-1-yl]benzyl}-L-serinate] | 331 to 3300 nM | > 3300 nM | 101 to 1000 nM | 331 to 3300 nM |
| O=C(/C=C/c1ccc(CN[C@H](C(=O)OC2CCCC2)c2ccccc2)cc1)NO [Example 17, Cyclopentyl (2S)-({4-[(1E)-3-(hydroxyamino)-3-oxoprop-1-en-1-yl]benzyl}amino)(phenyl)acetate] | 331 to 3300 nM | > 3300 nM | 101 to 1000 nM | < 330 nM |
| CC(C)C[C@@H](NCc1ccc(/C=C/C(=O)NO)cc1)C(=O)OC1CCCC1 [Example 18, Cyclopentyl N-{4-[(1E)-3-(hydroxyamino)-3-oxoprop-1-en-1-yl]benzyl}-D-leucinate] | 331 to 3300 nM | > 3300 nM | 101 to 1000 nM | 331 to 3300 nM |
| O=C(/C=C/c1ccc(CN[C@@H](C(=O)OC2CCCC2)C2CCCCC2)cc1)NO [Example 19, Cyclopentyl (2R)-cyclohexyl({4-[(1E)-3-(hydroxyamino)-3-oxoprop-1-en-1-yl]benzyl}amino)acetate] | > 3300 nM | > 3300 nM | 101 to 1000 nM | 331 to 3300 nM |
| CC(C)(C)OC[C@@H](NCc1ccc(/C=C/C(=O)NO)cc1)C(=O)OC1CCCC1 [Example 20, Cyclopentyl O-tert-butyl-N-{4-[(1E)-3-(hydroxyamino)-3-oxoprop-1-en-1-yl]benzyl}-D-serinate] | 331 to 3300 nM | > 3300 nM | 101 to 1000 nM | < 330 nM |
| CCOC(=O)[C@@H](NCc1ccc(/C=C/C(=O)NO)cc1)C1CCCCC1 [Example 21, Ethyl (2S)-cyclohexyl({4-[(1E)-3-(hydroxyamino)-3-oxoprop-1-en-1-yl]benzyl}amino)acetate] | < 330 nM | 331 to 3300 nM | < 100 nM | < 330 nM |
| C=CCOC(=O)[C@@H](NCc1ccc(/C=C/C(=O)NO)cc1)C1CCCCC1 [Example 25, Allyl (2S)-cyclohexyl({4-[(1E)-3-(hydroxyamino)-3-oxoprop-1-en-1-yl]benzyl}amino)acetate] | 331 to 3300 nM | 331 to 3300 nM | < 100 nM | < 330 nM |
| O=C(/C=C/c1ccc(CN[C@H](C(=O)OC2CC3CCC2C3)C2CCCCC2)cc1)NO (stereo partly drawn) [Example 26, Bicyclo[2.2.1]hept-2-yl (2S)-cyclohexyl({4-[(1E)-3-(hydroxyamino)-3-oxoprop-1-en-1-yl]benzyl}amino)acetate] | 331 to 3300 nM | 331 to 3300 nM | 101 to 1000 nM | < 330 nM |
| CC1CCCC1OC(=O)[C@@H](NCc1ccc(/C=C/C(=O)NO)cc1)C1CCCCC1 (stereo partly drawn) [Example 27, 2-Methylcyclopentyl (2S)-cyclohexyl({4-[(1E)-3-(hydroxyamino)-3-oxoprop-1-en-1-yl]benzyl}amino)acetate] | 331 to 3300 nM | 331 to 3300 nM | 101 to 1000 nM | < 330 nM |
| CC1CCC(OC(=O)[C@@H](NCc2ccc(/C=C/C(=O)NO)cc2)C2CCCCC2)C1 (stereo partly drawn) [Example 28, 3-Methylcyclopentyl (2S)-cyclohexyl({4-[(1E)-3-(hydroxyamino)-3-oxoprop-1-en-1-yl]benzyl}amino)acetate] | 331 to 3300 nM | 331 to 3300 nM | 101 to 1000 nM | < 330 nM |
| CC(C)C[C@H](NCc1ccc(CCC(=O)NO)cc1)C(=O)OCCN1CCOCC1 [Example 35, 2-Morpholin-4-ylethyl N-{4-[3-(hydroxyamino)-3-oxopropyl]benzyl}-L-leucinate] | 331 to 3300 nM | > 3300 nM | > 1000 nM | < 330 nM |
| CC(C)C[C@H](NCc1ccc(CCC(=O)NO)cc1)C(=O)OC1CC2CCC1C2 (stereo partly drawn) [Example 36, Bicyclo[2.2.1]hept-2-yl N-{4-[3-(hydroxyamino)-3-oxopropyl]benzyl}-L-leucinate] | < 330 nM | 331 to 3300 nM | 101 to 1000 nM | < 330 nM |
| CC(C)C[C@H](NCc1ccc(CCC(=O)NO)cc1)C(=O)OC1Cc2ccccc2C1 [Example 37, 2,3-Dihydro-1H-inden-2-yl N-{4-[3-(hydroxyamino)-3-oxopropyl]benzyl}-L-leucinate] | < 330 nM | 331 to 3300 nM | 101 to 1000 nM | < 330 nM |
| CC(C)C[C@H](NCc1ccc(CCC(=O)NO)cc1)C(=O)OCCN(C)C [Example 38, 2-(Dimethylamino)ethyl N-{4-[3-(hydroxyamino)-3-oxopropyl]benzyl}-L-leucinate] | > 3300 nM | > 3300 nM | 101 to 1000 nM | 331 to 3300 nM |
| O=C(/C=C/c1ccc(CN[C@H](C(=O)OC2Cc3ccccc3C2)C2CCCCC2)cn1)NO [Example 55, 2,3-Dihydro-1H-inden-2-yl (2S)-cyclohexyl[({6-[(1E)-3-(hydroxyamino)-3-oxoprop-1-en-1-yl]pyridin-3-yl}methyl)amino]acetate] | < 330 nM | 331 to 3300 nM | < 100 nM | < 330 nM |
| O=C(/C=C/c1ccc(CN[C@H](C(=O)OCCN2CCOCC2)C2CCCCC2)cn1)NO [Example 56, 2-Morpholin-4-ylethyl (2S)-cyclohexyl[({6-[(1E)-3-(hydroxyamino)-3-oxoprop-1-en-1-yl]pyridin-3-yl}methyl)amino]acetate] | < 330 nM | 331 to 3300 nM | < 100 nM | < 330 nM |
| CN(C)CCOC(=O)[C@@H](NCc1ccc(/C=C/C(=O)NO)nc1)C1CCCCC1 [Example 57, 2-(Dimethylamino)ethyl (2S)-cyclohexyl[({6-[(1E)-3-(hydroxyamino)-3-oxoprop-1-en-1-yl]pyridin-3-yl}methyl)amino]acetate] | < 330 nM | > 3300 nM | < 100 nM | < 330 nM |
| O=C(/C=C/c1ccc(CN[C@H](C(=O)OC2CC3CCC2C3)C2CCCCC2)cn1)NO (stereo partly drawn) [Example 58, Bicyclo[2.2.1]hept-2-yl (2S)-cyclohexyl[({6-[(1E)-3-(hydroxyamino)-3-oxoprop-1-en-1-yl]pyridin-3-yl}methyl)amino]acetate] | < 330 nM | 331 to 3300 nM | < 100 nM | < 330 nM |
| O=C(/C=C/c1cccc(CNCc2ccc(CN[C@H](C(=O)OC3CCCC3)C3CCCCC3)cc2)c1)NO [Example 73, Cyclopentyl (2S)-cyclohexyl({4-[({3-[(1E)-3-(hydroxyamino)-3-oxoprop-1-en-1-yl]benzyl}amino)methyl]benzyl}amino)acetate] | 331 to 3300 nM | 331 to 3300 nM | 101 to 1000 nM | 331 to 3300 nM |
| CC(C)(C)OC[C@H](NCc1ccc(CNCc2ccc(/C=C/C(=O)NO)cc2)cc1)C(=O)OC1CCCC1 [Example 75, Cyclopentyl O-tert-butyl-N-{4-[({4-[(1E)-3-(hydroxyamino)-3-oxoprop-1-en-1-yl]benzyl}amino)methyl]benzyl}-L-serinate] | < 330 nM | 331 to 3300 nM | 101 to 1000 nM | < 330 nM |
| O=C(/C=C/c1cccc(CNCC2CCC(CN[C@H](C(=O)OC3CCCC3)C3CCCCC3)CC2)c1)NO (stereo partly drawn) [Example 79, Cyclopentyl (2S)-cyclohexyl[({4-[({3-[(1E)-3-(hydroxyamino)-3-oxoprop-1-en-1-yl]benzyl}amino)methyl]cyclohexyl}methyl)amino]acetate] | 331 to 3300 nM | 331 to 3300 nM | > 1000 nM | 331 to 3300 nM |
| O=C(/C=C/c1ccc(CN2CCC(N[C@H](C(=O)OC3CCCC3)C3CCCCC3)CC2)cc1)NO [Example 80, Cyclopentyl (2S)-cyclohexyl[(1-{4-[(1E)-3-(hydroxyamino)-3-oxoprop-1-en-1-yl]benzyl}piperidin-4-yl)amino]acetate] | < 330 nM | 331 to 3300 nM | 101 to 1000 nM | < 330 nM |
| CC(C)(C)OC[C@H](NC1CCN(Cc2ccc(/C=C/C(=O)NO)cc2)CC1)C(=O)OC1CCCC1 [Example 81, Cyclopentyl O-tert-butyl-N-(1-{4-[(1E)-3-(hydroxyamino)-3-oxoprop-1-en-1-yl]benzyl}piperidin-4-yl)-L-serinate] | < 330 nM | 331 to 3300 nM | 101 to 1000 nM | < 330 nM |
| O=C(/C=C/c1ccc(CN2CCC(CN[C@H](C(=O)OC3CCCC3)c3ccccc3)CC2)cc1)NO [Example 82, Cyclopentyl (2S)-{[(1-{4-[(1E)-3-(hydroxyamino)-3-oxoprop-1-en-1-yl]benzyl}piperidin-4-yl)methyl]amino}(phenyl)acetate] | 331 to 3300 nM | 331 to 3300 nM | < 100 nM | 331 to 3300 nM |
| O=C(/C=C/c1ccc(CN2CCC(CN[C@H](C(=O)OC3CCCC3)C3CCCCC3)CC2)cc1)NO [Example 83, Cyclopentyl (2S)-cyclohexyl{[(1-{4-[(1E)-3-(hydroxyamino)-3-oxoprop-1-en-1-yl]benzyl}piperidin-4-yl)methyl]amino}acetate] | < 330 nM | 331 to 3300 nM | 101 to 1000 nM | 331 to 3300 nM |
